CO/N=C(\C(=O)Sc1nc2ccccc2s1)c1csc(N)n1
Conditions | solubility (mole fraction)
in ethanol, 277.67 K | 0.000203
in ethanol, 283.11 K | 0.000248
in ethanol, 288.17 K | 0.000325
in ethanol, 293.09 K | 0.000399
in ethanol, 298.17 K | 0.000517
in ethanol, 303.09 K | 0.000688
in isobutanol, 277.67 K | 0.000148
in isobutanol, 283.07 K | 0.000171
in isobutanol, 287.99 K | 0.000206
in isobutanol, 292.79 K | 0.000268
in isobutanol, 297.77 K | 0.000345
in isobutanol, 304.27 K | 0.000531
in isopentanol, 277.65 K | 0.000183
in isopentanol, 283.07 K | 0.000215
in isopentanol, 288.37 K | 0.000286
in isopentanol, 293.03 K | 0.000371
in isopentanol, 298.17 K | 0.000472
in isopentanol, 302.63 K | 0.000622
in isopropanol, 277.91 K | 0.000116
in isopropanol, 283.21 K | 0.000142
in isopropanol, 288.05 K | 0.000168
in isopropanol, 293.19 K | 0.000211
in isopropanol, 298.13 K | 0.000283
in isopropanol, 303.13 K | 0.000365
in n-butanol, 278.11 K | 0.000262
in n-butanol, 283.53 K | 0.00032
in n-butanol, 288.37 K | 0.000424
in n-butanol, 293.03 K | 0.000525
in n-butanol, 297.73 K | 0.000662
in n-butanol, 303.71 K | 0.000962
in n-pentanol, 278.27 K | 0.000283
in n-pentanol, 283.33 K | 0.00034
in n-pentanol, 288.15 K | 0.000433
in n-pentanol, 293.23 K | 0.000564
in n-pentanol, 298.17 K | 0.000744
in n-pentanol, 303.15 K | 0.000992
in n-propanol, 277.85 K | 0.000226
in n-propanol, 283.17 K | 0.000256
in n-propanol, 288.13 K | 0.000332
in n-propanol, 293.17 K | 0.000414
in n-propanol, 297.97 K | 0.000544
in n-propanol, 302.81 K | 0.00079
